Measured values reported in patent US20180127374A1, “BE[…] AS OPIOID RECEPTORS MODULATORS” (Purdue Pharma L.P., priority 2012, published 2018).
Where two headings read alike, the source gives them in different places.

Tests used:
[1] = molecular target: T1, human opioid receptor-like receptor (ORL-1) (Homo sapiens, UniProt P41146); assay: ORL-1 receptor radioligand binding assay; details: [3H]-nociceptin displacement, HEK-293 membranes; read-out: Ki (nM) ORL-1
T1 construct: host or cells: HEK-293
T1 sequence (P41146 whole entry): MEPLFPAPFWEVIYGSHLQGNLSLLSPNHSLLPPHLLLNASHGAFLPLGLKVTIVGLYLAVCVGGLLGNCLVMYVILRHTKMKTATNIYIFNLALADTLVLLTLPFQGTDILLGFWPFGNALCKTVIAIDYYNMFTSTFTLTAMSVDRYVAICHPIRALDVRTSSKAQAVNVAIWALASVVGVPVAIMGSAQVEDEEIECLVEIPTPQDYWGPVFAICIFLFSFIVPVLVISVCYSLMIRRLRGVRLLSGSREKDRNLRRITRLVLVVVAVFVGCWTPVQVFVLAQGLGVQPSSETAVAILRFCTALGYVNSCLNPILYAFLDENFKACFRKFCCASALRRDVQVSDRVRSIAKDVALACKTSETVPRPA
Method: Membranes from recombinant HEK-293 cells expressing the human opioid receptor-like receptor (ORL-1) (Perkin Elmer, Shelton, Conn.) were prepared by lysing cells in ice-cold hypotonic buffer (2.5 mM MgCl2, 50 mM HEPES, pH 7.4) (10 ml/10 cm dish) followed by homogenization with a tissue grinder/Teflon pestle. Membranes were collected by centrifugation at 30,000×g for 15 min at 4° C. and pellets resuspended in hypotonic buffer to a final concentration of 1-3 mg/ml. Protein concentrations were determined using the BioRad protein assay reagent with bovine serum albumen as standard. Aliquots of the ORL-1 receptor membranes were stored at −80° C.
The data from screening and dose-displacement experiments were analyzed using Microsoft Excel and the curve fitting functions in GraphPad PRISM™, v. 3.0 or higher, respectively, or an in-house function for one-site competition curve-fitting.

μ-opioid receptor [2] = molecular target: T2, μ-opioid receptor (Homo sapiens, UniProt P35372); assay: μ-opioid receptor radioligand dose-displacement binding assay
Method: Radioligand dose-displacement binding assays for μ-opioid receptors used 0.3 nM [^3H]-diprenorphine (Perkin Elmer, Shelton, Conn.), with […] membrane protein/well in a final volume of […] binding buffer (10 mM MgCl2, 1 mM EDTA, 5% DMSO, 50 mM HEPES, pH 7.4). Reactions were carried out in the absence or presence of increasing concentrations of unlabeled naloxone. All reactions were conducted in 96-deep well polypropylene plates for 2 hr at room temperature. […] The data were analyzed using the one-site competition curve fitting functions in GraphPad PRISM™ v. 3.0 or higher (San Diego, Calif.), or an in-house function for one-site competition curve-fitting.
Target sequence in this assay (P35372 whole entry): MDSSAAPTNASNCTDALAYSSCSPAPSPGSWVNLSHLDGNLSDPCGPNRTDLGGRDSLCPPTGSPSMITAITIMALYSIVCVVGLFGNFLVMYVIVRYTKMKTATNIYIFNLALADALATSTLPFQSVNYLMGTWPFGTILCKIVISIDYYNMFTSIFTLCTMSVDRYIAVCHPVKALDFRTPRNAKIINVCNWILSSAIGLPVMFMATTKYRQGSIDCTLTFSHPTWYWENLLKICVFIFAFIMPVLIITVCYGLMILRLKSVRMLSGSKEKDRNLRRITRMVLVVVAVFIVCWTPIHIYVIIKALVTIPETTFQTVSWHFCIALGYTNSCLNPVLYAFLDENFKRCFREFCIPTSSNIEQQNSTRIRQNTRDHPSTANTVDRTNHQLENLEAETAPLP

κ opioid receptor [3] = molecular target: T3, κ opioid receptor (Homo sapiens, UniProt P41145); assay: κ-opioid receptor [35S]GTPγS functional assay; format: biochemical; design: expressed in transfected cells; details: for Emax: relative to the effect elicited by U69,593
T3 sequence (P41145 whole entry): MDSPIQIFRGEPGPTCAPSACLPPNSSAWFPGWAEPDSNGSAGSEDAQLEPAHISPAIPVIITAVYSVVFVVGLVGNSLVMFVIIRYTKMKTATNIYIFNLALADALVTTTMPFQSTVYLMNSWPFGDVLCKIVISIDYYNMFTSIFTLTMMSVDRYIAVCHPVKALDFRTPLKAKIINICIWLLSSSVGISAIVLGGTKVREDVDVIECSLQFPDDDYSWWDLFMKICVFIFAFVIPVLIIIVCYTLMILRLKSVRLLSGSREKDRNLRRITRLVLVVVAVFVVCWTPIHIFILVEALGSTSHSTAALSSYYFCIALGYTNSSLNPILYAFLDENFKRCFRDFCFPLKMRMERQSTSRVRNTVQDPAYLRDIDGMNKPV
Method: (§1) Functional [^35S]GTPγS binding assays were conducted as follows. κ opioid receptor membrane solution was prepared by sequentially adding final concentrations of 0.026 μg/μl κ membrane protein (in-house), 10 μg/mL saponin, 3 μM GDP and 0.20 nM [^35S]GTPγS to binding buffer (100 mM NaCl, 10 mM MgCl2, 20 mM HEPES, pH 7.4) on ice. The prepared membrane solution (190 μl/well) was transferred to 96-shallow well polypropylene plates containing 10 μl of 20× concentrated stock solutions of agonist prepared in DMSO. Plates were incubated for 30 min at a temperature of about 25° C. with shaking.
κ GTP EC50 is the concentration of a compound providing 50% of the maximal response for the compound at a κ receptor.
κ GTP Emax (%) is the maximal effect elicited by a compound relative to the effect elicited by U69,593.

μ-opioid receptor [4] = molecular target: T2, μ-opioid receptor; assay: μ-opioid receptor [35S]GTPγS functional assay; format: biochemical; design: purchased Perkin Elmer, Shelton, Conn; details: for Emax: relative to the effect elicited by DAMGO; for EC50: μ-receptor membranes, read-out: GTPγS μ EC50
Method: [^35S]GTPγS functional assays were conducted using freshly thawed μ-receptor membranes (Perkin Elmer, Shelton, Conn.). Assay reactions were prepared by sequentially adding the following reagents to binding buffer (100 mM NaCl, 10 mM MgCl2, 20 mM HEPES, pH 7.4) on ice (final concentrations indicated): membrane protein (0.026 mg/mL), saponin ([…]), GDP ([…]) and [^35S]GTPγS (0.20 nM; Perkin Elmer, Shelton, Conn.). The prepared membrane solution (190 μl/well) was transferred to 96-shallow well polypropylene plates containing 10 μI of 20× concentrated stock solutions of the agonist [D-Ala^e, N-methyl-Phe^4 Gly-ol^5]-enkephalin (DAMGO) prepared in dimethyl sulfoxide (DMSO). Plates were incubated for 30 min at about 25° C. with shaking. […] Data were analyzed using the sigmoidal dose-response curve fitting functions in GraphPad PRISM v. 3.0, or an in-house function for non-linear, sigmoidal dose-response curve-fitting.
μ GTP EC50 is the concentration of a compound providing 50% of the maximal response for the compound at a μ-opioid receptor.
μ GTP Emax (%) is the maximal effect elicited by a compound relative to the effect elicited by DAMGO, a standard μ agonist. Generally, the μ GTP Emax (%) value measures the efficacy of a compound to treat or prevent pain or other Conditions.
Target sequence in this assay (P35372 whole entry, species assumed): as the sequence (P35372 whole entry) above

κ opioid receptor [5] = molecular target: T3, κ opioid receptor; assay: κ-opioid receptor radioligand dose displacement binding assay; design: expressed in transfected cells; host or cells: HEK-293
Method: Membranes from recombinant HEK-293 cells expressing the human κ opioid receptor (κ) (cloned in house) were prepared by lysing cells in ice cold hypotonic buffer (2.5 mM MgCl2, 50 mM HEPES, pH 7.4) (10 mL/10 cm dish) followed by homogenization with a tissue grinder/Teflon pestle. Membranes were collected by centrifugation at 30,000×g for 15 min at 4° C. and pellets were resuspended in hypotonic buffer to a final concentration of 1-3 mg/mL. Protein concentrations were determined using the BioRad protein assay reagent with bovine serum albumen as standard. Aliquots of κ receptor membranes were stored at […]

δ opioid receptor [6] = molecular target: T4, δ opioid receptor (Homo sapiens, UniProt P41143); assay: δ-opioid receptor radioligand dose-displacement binding assay
T4 sequence (P41143 whole entry): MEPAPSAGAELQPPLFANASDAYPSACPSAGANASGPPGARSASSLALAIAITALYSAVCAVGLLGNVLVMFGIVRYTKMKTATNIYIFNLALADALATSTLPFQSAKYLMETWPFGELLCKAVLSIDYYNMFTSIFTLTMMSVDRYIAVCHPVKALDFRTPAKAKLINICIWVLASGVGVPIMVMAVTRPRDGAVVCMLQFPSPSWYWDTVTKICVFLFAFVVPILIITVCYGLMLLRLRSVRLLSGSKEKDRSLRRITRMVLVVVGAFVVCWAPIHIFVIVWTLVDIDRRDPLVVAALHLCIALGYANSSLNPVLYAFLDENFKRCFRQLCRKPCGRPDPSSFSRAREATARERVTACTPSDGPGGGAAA
Method: δ-opioid Receptor Binding Assay Procedures were conducted as follows. Radioligand dose-displacement assays used 0.3 nM [^3H]-Naltrindole (Perkin Elmer, Shelton, Conn.; 33.0 Ci/mmole) with 5 μg membrane protein (Perkin Elmer, Shelton, Conn.) in a final volume of 500 μl binding buffer (5 mM MgCl2, 5% DMSO, 50 mM Trizma base, pH 7.4). Non-specific binding was determined in the presence of 25 μM unlabeled naloxone. All reactions were performed in 96-deep well polypropylene plates for 1 hr at a temperature of about 25° C. Binding reactions were terminated by rapid filtration onto 96-well Unifilter GF/C filter plates (Perkin Elmer, Shelton, Conn.) presoaked in 0.5% polyethylenimine (Sigma). Harvesting was performed using a 96-well tissue harvester (Perkin Elmer, Shelton, Conn.) followed by five filtration washes with 500 μl ice-cold binding buffer. Filter plates were subsequently dried at 50° C. for 1-2 hours. Fifty μl/well scintillation cocktail (Perkin Elmer, Shelton, Conn.) was added and plates were counted in a Packard Top-Count for 1 min/well.

δ opioid receptor [7] = molecular target: T4, δ opioid receptor; assay: δ-opioid receptor [35S]GTPγS functional assay; format: biochemical; design: purchased Perkin Elmer, Shelton, Conn; details: for Emax: relative to the effect elicited by met-enkephalin; for EC50: δ membrane protein
Method: as §1, with “δ” for “κ”, “(Perkin Elmer, Shelton, Conn.),” for “(in-house),”, “[…]” for “10 μl”
δ GTP EC50 is the concentration of a compound providing 50% of the maximal response for the compound at a δ receptor.
δ GTP Emax (%) is the maximal effect elicited by a compound relative to the effect elicited by met-enkephalin. […] In another embodiment, the Compounds of the Invention will have a δ GTP Emax (%) of about 100% or greater.

[8] = [3H]-diprenorphine displacement, read-out: Ki (nM) Opioid Receptor μ
[9] = κ membrane protein (in-house), read-out: GTPγS κ EC50
[10] = [3H]-U69,593 displacement, HEK-293 membranes, read-out: Ki (nM) Opioid Receptor κ

SMILES | Ki [1] | Ki (μ-opioid receptor [2]; [8]) | Emax (κ opioid receptor [3]) | EC50 (κ opioid receptor [3]; [9]) | Emax (μ-opioid receptor [4]) | EC50 (μ-opioid receptor [4]) | Ki (κ opioid receptor [5]; [10]) | Ki (δ opioid receptor [6]) | Emax (δ opioid receptor [7]) | EC50 (δ opioid receptor [7]) | Ki (μ-opioid receptor [2]) | EC50 (κ opioid receptor [3]) | Ki (κ opioid receptor [5]) | EC50 (μ-opioid receptor [4]; μM)
COC(=O)CCC[C@]12CCN(CC3CC3)[C@H](Cc3ccc(O)cc31)[C@@H]2C [Compound 23, methyl 4-((2R,6R,11R)-3-(cyclopropylmethyl)-8-hydroxy-11-methyl-1,2,3,4,5,6-hexahydro-2,6-methanobenzo[d]azocin-6-yl)butanoate] | 2240 ± 285 nM | 1.16 ± 0.36 nM | 57% | 5.19 nM | 18% | 0.00233 µM | 0.07 ± 0.01 nM | 32.6 ± 2.97 nM | – | – | – | – | – | –
C[C@H]1[C@H]2Cc3ccc(O)cc3[C@]1(CCOc1cncc(C(=O)O)c1)CCN2CC1CC1 [Compound 16, 5-(2-((2R,6S,11R)-3-(cyclopropylmethyl)-8-hydroxy-11-methyl-1,2,3,4,5,6-hexahydro-2,6-methanobenzo[d]azocin-6-yl)ethoxy)nicotinic acid] | – | 6.85 ± 1.48 nM | 60.7% | 67.9 nM | 26% | 0.00895 µM | 12.6 ± 2.11 nM | 62.5 ± 11 nM | 37.8% | 2.48 nM | – | – | – | –
C[C@H]1[C@H]2Cc3ccc(O)cc3[C@]1(CCCC(N)=O)CCN2CC1CC1 [Compound 20, 4-((2R,6R,11R)-3-(cyclopropylmethyl)-8-hydroxy-11-methyl-1,2,3,4,5,6-hexahydro-2,6-methanobenzo[d]azocin-6-yl)butanamide] | – | 5.38 ± 0.43 nM | 58.2% | 6 nM | 19% | 0.00318 µM | 0.08 ± 0.01 nM | – | – | – | – | – | – | –
COc1ccc2c(c1)[C@@]1(CCCCO)CCN(CC3CC3)C(C2)[C@@H]1C [Compound 13, 4-((6S,11R)-3-(cyclopropylmethyl)-8-methoxy-11-methyl-1,2,3,4,5,6-hexahydro-2,6-methanobenzo[d]azocin-6-yl)butan-1-ol] | – | – | 71.3% | – | – | – | – | 16200 ± 3050 nM | – | – | 3420 ± 763 nM | 296 nM | 7.15 ± 0.86 nM | –
COc1ccc2c(c1)[C@@]1(CCCC(=O)N[C@@H](C)C(N)=O)CCN(CC3CC3)C(C2)[C@@H]1C [Compound 14, N—((S)-1-amino-1-oxopropan-2-yl)-4-((6S,11R)-3-(cyclopropylmethyl)-8-methoxy-11-methyl-1,2,3,4,5,6-hexahydro-2,6-methanobenzo[d]azocin-6-yl)butanamide] | – | 4270 ± 1360 nM | 63% | 1050 nM | 64% | 1.3 µM | 44 ± 17.7 nM | – | – | – | – | – | – | –
C[C@H]1C2Cc3ccc(O)cc3[C@@]1(CCCC(N)=O)CCN2CC1CC1 [Compound 2, 4-((6S,11R)-3-(cyclopropylmethyl)-8-hydroxy-11-methyl-1,2,3,4,5,6-hexahydro-2,6-methanobenzo[d]azocin-6-yl)butanamide] | – | 10.7 ± 1.82 nM | 67.3% | 8.98 nM | – | – | 0.49 ± 0.11 nM | – | – | – | – | – | – | > 20 µM
COc1ccc2c(c1)[C@@]1(CCCc3ccco3)CCN(CC3CC3)C(C2)C1C (stereo in doubt) [Compound 15, (2R,6S,11S)-3-(cyclopropylmethyl)-6-(3-(furan-2-yl)propyl)-8-methoxy-11-methyl-1,2,3,4,5,6-hexahydro-2,6-methanobenzo[d]azocine] | – | 389 ± 90.2 nM | 82.3% | 104 nM | 34.6% | 0.303 µM | 2.11 ± 0.22 nM | 736 ± 196 nM | 67% | 143 nM | – | – | – | –
COc1ccc2c(c1)[C@@]1(CCCC(=O)O)CCN(CC3CC3)C(C2)[C@@H]1C [Compound 3, 4-((6S,11R)-3-(cyclopropylmethyl)-8-methoxy-11-methyl-1,2,3,4,5,6-hexahydro-2,6-methanobenzo[d]azocin-6-yl)butanoic acid] | – | 1110 ± 32.6 nM | 80.7% | 3470 nM | – | – | 137 ± 41.9 nM | – | – | – | – | – | – | > 20 µM
COC(=O)c1cccc(C(=O)NCC[C@]23CCN(CC4CC4)[C@H](Cc4ccc(OC)cc42)[C@@H]3C)c1 [Compound 26, methyl 3-((2-((2R,6R,11R)-3-(cyclopropylmethyl)-8-methoxy-11-methyl-1,2,3,4,5,6-hexahydro-2,6-methanobenzo[d]azocin-6-yl)ethyl)carbamoyl)benzoate] | – | 158 ± 44.3 nM | 105% | 15.3 nM | 95% | 0.0461 µM | 0.51 ± 0.07 nM | – | – | – | – | – | – | –
COC(=O)/C=C/C[C@@]12CCN(CC3CC3)C(Cc3ccc(OC)cc31)[C@@H]2C [Compound 8, (E)-methyl 4-((6S,11R)-3-(cyclopropylmethyl)-8-methoxy-11-methyl-1,2,3,4,5,6-hexahydro-2,6-methanobenzo[d]azocin-6-yl)but-2-enoate] | – | 1810 ± 553 nM | 99.3% | 123 nM | 46.3% | 0.562 µM | 3.21 ± 0.76 nM | – | – | – | – | – | – | –
CC(C)CN1CC[C@@]2(CCCC(N)=O)c3cc(O)ccc3C[C@@H]1[C@@H]2C [Compound 18, 4-((2R,6R,11R)-8-hydroxy-3-isobutyl-11-methyl-1,2,3,4,5,6-hexahydro-2,6-methanobenzo[d]azocin-6-yl)butanamide] | – | 19.8 ± 0.68 nM | 43% | 7.14 nM | 25.3% | 0.00912 µM | 0.51 ± 0.05 nM | 155 ± 44.7 nM | 74.3% | 81 nM | – | – | – | –
